In US5756423A, “Method of controlling plants by inhibition of farnesyl pyrophosphate synthase” (Zeneca Limited, priority 1997, dated 1998):
Like-named read-outs stand apart in the source and are kept apart here.

Tests used:
[1] = tested on: farnesyl pyrophosphate synthase in daffodil chromoplasts; assay: inhibition of farnesyl pyrophosphate synthase in daffodil chromoplasts (14C-isopentenyl pyrophosphate incorporation); type: biochemical, Narcissus pseudonarcissus; conditions: unit inferred, IC50 values in nM, read-out: IC50
In short: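 Daffodil chromoplasts in pH 7.7 sucrose/MgCl2/HEPES buffer with cysteine, NaF and BSA, started with ~3 micromolar 14C-isopentenyl pyrophosphate, 30 min at 30° C. Butanol-extractable radioactivity counted by scintillation; % residual activity calculated against zero-time and end-point no-inhibitor controls.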

[2] = tested on: wild oat (Avena fatua) (AVEFA); assay: post-emergent herbicidal test, wild oat; type: in vivo; conditions: Avena fatua, post-emergence, post-emergent, 17-21 days after application, read-out: AVEFA percent control; for pest or weed control at 4000 g/ha: 4.0 kg/ha; for pest or weed control at 1000 g/ha: 1.0 kg/ha (*)
In short: (§1)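 Percent injury (0 = no effect, 100 = complete kill) scored 17–21 days post-treatment against untreated flats. Foliar spray at 1 or 4 kg/ha in deionized water plus 0.5% v/v Tween 20, onto greenhouse plants (29/21 °C, 14 h light) at 3–4 leaf (grasses) or 1–2 leaf (broadleaves) stage.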

[3] = tested on: barnyard grass (Enchinochloa crusgalli) (ECHCG); assay: post-emergent herbicidal test, barnyard grass; type: in vivo; conditions: Echinochloa crus-galli, post-emergence, post-emergent, 17-21 days after application, read-out: ECHCG percent control; for pest or weed control at 4000 g/ha: 4.0 kg/ha; for pest or weed control at 1000 g/ha: 1.0 kg/ha (*)
In short: as §1

[4] = tested on: green foxtail (Setaria viridis) (SETVI); assay: post-emergent herbicidal test, green foxtail; type: in vivo; conditions: Setaria viridis, post-emergence, post-emergent, 17-21 days after application, read-out: SETVI percent control; for pest or weed control at 4000 g/ha: 4.0 kg/ha; for pest or weed control at 1000 g/ha: 1.0 kg/ha (*)
In short: as §1

[5] = tested on: velvetleaf (Abutilon theophrasti) (ABUTH); assay: post-emergent herbicidal test, velvetleaf; type: in vivo; conditions: Abutilon theophrasti, post-emergence, post-emergent, 17-21 days after application, read-out: ABUTH percent control; for pest or weed control at 4000 g/ha: 4.0 kg/ha; for pest or weed control at 1000 g/ha: 1.0 kg/ha (*)
In short: as §1

[6] = tested on: morningglory (Ipomoea spp.) (IPOSS); assay: post-emergent herbicidal test, morningglory; type: in vivo; conditions: Ipomoea, post-emergence, post-emergent, 17-21 days after application, read-out: IPOSS percent control; for pest or weed control at 4000 g/ha: 4.0 kg/ha; for pest or weed control at 1000 g/ha: 1.0 kg/ha (*)
In short: as §1

[7] = tested on: wild mustard (Brassica kaber), also known as Sinapis arvensis (SINAR); assay: post-emergent herbicidal test, wild mustard; type: in vivo; conditions: Brassica, post-emergence, post-emergent, 17-21 days after application, read-out: SINAR percent control; for pest or weed control at 4000 g/ha: 4.0 kg/ha; for pest or weed control at 1000 g/ha: 1.0 kg/ha (*)
In short: as §1

[8] = tested on: yellow nutsedge (Cyperus esculentus) (CYPES); assay: post-emergent herbicidal test, yellow nutsedge; type: in vivo; conditions: Cyperus, post-emergence, post-emergent, 17-21 days after application, read-out: CYPES percent control; for pest or weed control at 4000 g/ha: 4.0 kg/ha; for pest or weed control at 1000 g/ha: 1.0 kg/ha (*)
In short: as §1

Cc1cccnc1NCC(P(=O)(O)O)P(=O)(O)O [Compound 31]
IC50 ([1]; Table I): 6600 nM
IC50 ([1]; Table II): 6600 nM
pest or weed control at 4000 g/ha [2]: 0%
pest or weed control at 4000 g/ha [3]: 0%
pest or weed control at 4000 g/ha [4]: 0%
pest or weed control at 4000 g/ha [5]: 0%
pest or weed control at 4000 g/ha [6]: 0%
pest or weed control at 4000 g/ha [7]: 0%
pest or weed control at 4000 g/ha [8]: 0%

CCCN(C)CC(P(=O)(O)O)P(=O)(O)O [Compound 32]
IC50 ([1]; Table I): 27 nM
IC50 ([1]; Table II): 27 nM
pest or weed control at 1000 g/ha [2]: 100%
pest or weed control at 1000 g/ha [3]: 95%
pest or weed control at 1000 g/ha [4]: 100%
pest or weed control at 1000 g/ha [5]: 75%
pest or weed control at 1000 g/ha [6]: 85%
pest or weed control at 1000 g/ha [7]: 100%
pest or weed control at 1000 g/ha [8]: 25%

CC(C)N(C)CC(P(=O)(O)O)P(=O)(O)O [Compound 33]
IC50 ([1]; Table I): 178 nM
IC50 ([1]; Table II): 178 nM
pest or weed control at 1000 g/ha [2]: 100%
pest or weed control at 1000 g/ha [3]: 100%
pest or weed control at 1000 g/ha [4]: 95%
pest or weed control at 1000 g/ha [5]: 50%
pest or weed control at 1000 g/ha [6]: 65%
pest or weed control at 1000 g/ha [7]: 100%
pest or weed control at 1000 g/ha [8]: 10%

C=C(C)CNCC(P(=O)(O)O)P(=O)(O)O [Compound 34]
IC50 ([1]; Table I): 31 nM
IC50 ([1]; Table II): 31 nM
pest or weed control at 1000 g/ha [2]: 95%
pest or weed control at 1000 g/ha [3]: 95%
pest or weed control at 1000 g/ha [4]: 95%
pest or weed control at 1000 g/ha [5]: 60%
pest or weed control at 1000 g/ha [6]: 60%
pest or weed control at 1000 g/ha [7]: 100%
pest or weed control at 1000 g/ha [8]: 15%

CC1CC(C)CN(CC(P(=O)(O)O)P(=O)(O)O)C1 (stereo not drawn) [Compound 35]
IC50 ([1]; Table I): 520 nM
IC50 ([1]; Table II): 520 nM
pest or weed control at 1000 g/ha [2]: 98%
pest or weed control at 1000 g/ha [3]: 15%
pest or weed control at 1000 g/ha [4]: 50%
pest or weed control at 1000 g/ha [5]: 0%
pest or weed control at 1000 g/ha [6]: 30%
pest or weed control at 1000 g/ha [7]: 25%
pest or weed control at 1000 g/ha [8]: 0%

O=P(O)(O)C(CNNc1c(Cl)cc(C(F)(F)F)cc1Cl)P(=O)(O)O [Compound 36]
IC50 ([1]; Table I): > 500000 nM
IC50 ([1]; Table II): > 500000 nM
pest or weed control at 4000 g/ha [2]: 0%
pest or weed control at 4000 g/ha [3]: 0%
pest or weed control at 4000 g/ha [4]: 0%
pest or weed control at 4000 g/ha [5]: 0%
pest or weed control at 4000 g/ha [6]: 0%
pest or weed control at 4000 g/ha [7]: 0%
pest or weed control at 4000 g/ha [8]: 0%

C=CCN(CC=C)CC(P(=O)(O)O)P(=O)(O)O [Compound 37]
IC50 ([1]; Table I): 53 nM
IC50 ([1]; Table II): 53 nM
pest or weed control at 1000 g/ha [2]: 95%
pest or weed control at 1000 g/ha [3]: 95%
pest or weed control at 1000 g/ha [4]: 100%
pest or weed control at 1000 g/ha [5]: 10%
pest or weed control at 1000 g/ha [6]: 15%
pest or weed control at 1000 g/ha [7]: 98%
pest or weed control at 1000 g/ha [8]: 10%

CCCN(CC)CC(P(=O)(O)O)P(=O)(O)O [Compound 38]
IC50 ([1]; Table I): 124 nM
IC50 ([1]; Table II): 124 nM
pest or weed control at 1000 g/ha [2]: 100%
pest or weed control at 1000 g/ha [3]: 100%
pest or weed control at 1000 g/ha [4]: 100%
pest or weed control at 1000 g/ha [5]: 70%
pest or weed control at 1000 g/ha [6]: 90%
pest or weed control at 1000 g/ha [7]: 100%
pest or weed control at 1000 g/ha [8]: 10%

O=P(O)(O)C(CNCC(F)(F)F)P(=O)(O)O [Compound 39]
IC50 ([1]; Table I): 380 nM
IC50 ([1]; Table II): 380 nM
pest or weed control at 1000 g/ha [2]: 20%
pest or weed control at 1000 g/ha [3]: 0%
pest or weed control at 1000 g/ha [4]: 5%
pest or weed control at 1000 g/ha [5]: 0%
pest or weed control at 1000 g/ha [6]: 0%
pest or weed control at 1000 g/ha [7]: 0%
pest or weed control at 1000 g/ha [8]: 0%

C=CCN(CC)CC(P(=O)(O)O)P(=O)(O)O [Compound 40]
IC50 ([1]; Table I): 88 nM
IC50 ([1]; Table II): 88 nM
pest or weed control at 1000 g/ha [2]: 85%
pest or weed control at 1000 g/ha [3]: 90%
pest or weed control at 1000 g/ha [4]: 80%
pest or weed control at 1000 g/ha [5]: 10%
pest or weed control at 1000 g/ha [6]: 10%
pest or weed control at 1000 g/ha [7]: 95%
pest or weed control at 1000 g/ha [8]: 10%
